What was measured:
[1] = tested on: crabgrass; test: Test Example 2: soil surface treatment, upland pot test; assay type: in vivo, Digitaria sanguinalis L.; conditions: observed 20th to 28th day
Outline: (§1)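 Visual growth-control ratings (0 = untreated, 100 = complete kill) were taken 20–28 days after soil surface application. The spray was made one day post-sowing in upland soil pots, using formulated compound diluted with water at 1,500 L/ha at a set active ingredient rate.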

[2] = tested on: velvetleaf; test: as above; assay type: in vivo, Abutilon theophrasti MEDIC.; conditions: observed 20th to 28th day
Outline: as §1

[3] = tested on: green foxtail; test: Test Example 1: foliage treatment, upland pot test; assay type: in vivo, Setaria viridis L.; conditions: active ingredient 500 g/ha, observed 18th to 23rd day, 0 = non-treated, 100 = complete kill
[4] = tested on: prickly sida; test: Test Example 1: foliage treatment, upland pot test; assay type: in vivo, Sida spinosa L.; conditions: active ingredient 500 g/ha, observed 18th to 23rd day, 0 = non-treated, 100 = complete kill
[5] = tested on: crabgrass; test: Test Example 1: foliage treatment, upland pot test; assay type: in vivo, Digitaria sanguinalis L.; conditions: active ingredient 500 g/ha, observed 18th to 23rd day, 0 = non-treated, 100 = complete kill
[6] = tested on: prickly sida; test: Test Example 2: soil surface treatment, upland pot test; assay type: in vivo, Sida spinosa L.; conditions: observed 20th to 28th day
Outline: as §1

[7] = tested on: japanese bulrush; test: Test Example 3: paddy pot test, application under submerged conditions; assay type: in vivo, Scirpus juncoides; conditions: submerged application at 0.5 leaf stage, visually observed 14 days after application, 0 = non-treated, 100 = complete kill
Outline: (§2)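 Visual rating of growth control (0% equals untreated, 100% complete kill) made 14 days after treatment. Compound, formulated as wettable powder or emulsifiable concentrate and diluted in water, was pipetted under submerged conditions at predetermined active-ingredient doses once weeds reached 0.5-leaf (barnyardgrass, bulrush) or primary-leaf (wapato, from tubers) stage. Pots of greenhouse paddy soil held 3–4 cm flooding.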

[8] = tested on: redroot pigweed; test: Test Example 1: foliage treatment, upland pot test; assay type: in vivo, Amaranthus retroflexus L.; conditions: active ingredient 500 g/ha, observed 18th to 23rd day, 0 = non-treated, 100 = complete kill
[9] = tested on: corn; test: Test Example 2: soil surface treatment, upland pot test; assay type: in vivo, Zea mays L.; conditions: observed 20th to 28th day
Outline: as §1

[10] = tested on: rice; test: as above; assay type: in vivo, Oryza sativa L.; conditions: observed 20th to 28th day
Outline: as §1

[11] = tested on: redroot pigweed; test: as above; assay type: in vivo, Amaranthus retroflexus L.; conditions: observed 20th to 28th day
Outline: as §1

[12] = tested on: green foxtail; test: as above; assay type: in vivo, Setaria viridis L.; conditions: observed 20th to 28th day
Outline: as §1

[13] = tested on: japanese ribbon wapato; test: Test Example 3: paddy pot test, application under submerged conditions; assay type: in vivo, Sagittaria pygniaea; conditions: submerged application at primary leaf stage, visually observed 14 days after application, 0 = non-treated, 100 = complete kill
Outline: as §2

[14] = tested on: rice; test: Test Example 1: foliage treatment, upland pot test; assay type: in vivo, Oryza sativa L.; conditions: crop, active ingredient 500 g/ha, observed 18th to 23rd day, 0 = non-treated, 100 = complete kill
Outline: (§3)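 Visual growth-control scores (0 = untreated, 100 = complete kill) were taken 18–23 days after foliar spraying of a wettable powder or emulsifiable concentrate, diluted in 500 L/ha water with 0.1% (v/v) spreader. Treatment leaf stages: barnyardgrass 1.3–2.8, rice 1.2–2.6, wheat 1.3–2.4, soybean 0.1–0.4.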

[15] = tested on: barnyardgrass; test: Test Example 2: soil surface treatment, upland pot test; assay type: in vivo, Echinochloa crus-galli L.; conditions: observed 20th to 28th day
Outline: as §1

[16] = tested on: corn; test: Test Example 1: foliage treatment, upland pot test; assay type: in vivo, Zea mays L.; conditions: crop, active ingredient 500 g/ha, observed 18th to 23rd day, 0 = non-treated, 100 = complete kill
Outline: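 In this upland pot foliage test, corn plants at 2.1 to 3.2 leaf stages were sprayed by a small size sprayer. The spray was a conventionally formulated wettable powder or emulsifiable concentrate weighed to a set active ingredient amount, diluted in water at 500 L/ha, plus 0.1% (v/v) agricultural spreader. Visual assessment on days 18 to 23 gave growth controlling degree (%), where 0 equals untreated and 100 means complete kill.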

[17] = tested on: wheat; test: Test Example 2: soil surface treatment, upland pot test; assay type: in vivo, Triticum spp.; conditions: observed 20th to 28th day
Outline: as §1

[18] = tested on: velvetleaf; test: Test Example 1: foliage treatment, upland pot test; assay type: in vivo, Abutilon theophrasti MEDIC.; conditions: active ingredient 500 g/ha, observed 18th to 23rd day, 0 = non-treated, 100 = complete kill
[19] = tested on: barnyardgrass; test: Test Example 3: paddy pot test, application under submerged conditions; assay type: in vivo, Echinochloa crus-galli L.; conditions: submerged application at 0.5 leaf stage, visually observed 14 days after application, 0 = non-treated, 100 = complete kill
Outline: as §2

[20] = tested on: soybean; test: Test Example 2: soil surface treatment, upland pot test; assay type: in vivo, Glycine max Merr.; conditions: observed 20th to 28th day
Outline: as §1

[21] = tested on: tall morningglory; test: Test Example 1: foliage treatment, upland pot test; assay type: in vivo, Ipomoea purpurea L.; conditions: active ingredient 500 g/ha, observed 18th to 23rd day, 0 = non-treated, 100 = complete kill
From the text: Upland field soil was put into a 1/170,000 ha pot, and seed of various plants were sown. Then, when the plants reached predetermined leaf stages ((1) barnyardgrass: 1.3 to 2.8 leaf stages, (2) crabgrass: 1.0 to 2.8 leaf stages, (3) green foxtail: 1.3 to 2.6 leaf stages, (4) redroot pigweed: 0.1 to 1.2 leaf stages, (5) prickly sida: 0.1 to 1.2 leaf stages, (6) velvetleaf: 0.1 to 1.2 leaf stages, (7) tall morningglory: 0.1 to 1.5 leaf stages, (8) rice: 1.2 to 2.6 leaf stages, (9) wheat: 1.3 to 2.4 leaf stages, (10) corn, 2.1 to 3.2 leaf stages, (11) soybean: 0.1 to 0.4 leaf stage), a wettable powder or emulsifiable concentrate having the compound of the present invention formulated in accordance with a usual formulation method, was weighed so that the active ingredient would be a predetermined amount, and diluted with water in an amount of 500 L/ha. To the diluted solution, 0.1% (v/v) of agricultural spreader was added. The herbicide thus adjusted was applied by a small size sprayer for foliage treatment. On the 18th to 23rd days after the application of the herbicide, the growth of the respective plants was visually observed, and the herbicidal effects were evaluated by the growth controlling degrees (%) ranging from 0 (equivalent to the non-treated plot) to 100 (complete kill), whereby the results shown in Table 3, were obtained.

[22] = tested on: rice (var. Nihonbare); test: Test Example 3: paddy pot test, transplanted rice; assay type: in vivo, Oryza sativa L.; conditions: applied 4th day after transplantation, visually observed 21st day after application, 0 = non-treated, 100 = complete kill
Outline: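 Visual crop-injury rating (0 = as untreated, 100 = complete kill, %) taken 21 days post-application. Treatment: formulated compound, water-diluted, pipetted into 3–4 cm flood water at a preset active-ingredient dose, 4 days after transplanting 2-leaf Nihonbare rice 3 cm deep in puddled paddy soil.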

[23] = tested on: barnyardgrass; test: Test Example 1: foliage treatment, upland pot test; assay type: in vivo, Echinochloa crus-galli L.; conditions: active ingredient 500 g/ha, observed 18th to 23rd day, 0 = non-treated, 100 = complete kill
Outline: as §3

[24] = tested on: soybean; test: Test Example 1: foliage treatment, upland pot test; assay type: in vivo, Glycine max Merr.; conditions: crop, active ingredient 500 g/ha, observed 18th to 23rd day, 0 = non-treated, 100 = complete kill
Outline: as §3

[25] = tested on: wheat; test: Test Example 1: foliage treatment, upland pot test; assay type: in vivo, Triticum spp.; conditions: crop, active ingredient 500 g/ha, observed 18th to 23rd day, 0 = non-treated, 100 = complete kill
Outline: as §3

[26] = active ingredient 1000 g/ha, 0 = non-treated, 100 = complete kill

SMILES | Growth controlling degree (%) Crabgrass ([1]; active ingredient 1000 g/ha) | Growth controlling degree (%) Velvetleaf ([2]; active ingredient 1000 g/ha) | Growth controlling degree (%) Green foxtail [3] | Growth controlling degree (%) Prickly sida [4] | Growth controlling degree (%) Crabgrass [5] | Growth controlling degree (%) Prickly sida ([6]; active ingredient 1000 g/ha) | Growth controlling degree (%) Japanese bulrush ([7]; active ingredient 500 g/ha) | Growth controlling degree (%) Redroot pigweed [8] | Growth controlling degree (%) Corn ([9]; active ingredient 1000 g/ha) | Growth controlling degree (%) Rice ([10]; active ingredient 1000 g/ha) | Growth controlling degree (%) Redroot pigweed ([11]; active ingredient 1000 g/ha) | Growth controlling degree (%) Green foxtail ([12]; active ingredient 1000 g/ha) | Growth controlling degree (%) Japanese ribbon wapato ([13]; active ingredient 500 g/ha) | Growth controlling degree (%) Rice [14] | Growth controlling degree (%) Barnyardgrass [15, 26] | Growth controlling degree (%) Corn [16] | Growth controlling degree (%) wheat ([17]; active ingredient 1000 g/ha) | Growth controlling degree (%) Velvetleaf [18] | Growth controlling degree (%) Barnyardgrass [23] | Growth controlling degree (%) Soybean [24] | further results
CC(C)C(c1cnccc1C(F)(F)F)N(C)C(=O)Cc1c(F)cccc1F (stereo not drawn) [I-13] | 100% | 100% | 80% | 70% | 80% | 90% | 95% | 80% | 40% | 30% | 90% | 100% | 90% | 20% | 100% | 70% | 98% | 80% | 80% | 90% | Growth controlling degree (%) Barnyardgrass ([19]; active ingredient 500 g/ha): 100%; Growth controlling degree (%) Soyabean ([20]; active ingredient 1000 g/ha): 20%; Growth controlling degree (%) Tall morningglory [21]: 95%; Growth controlling degree (%) Rice ([22]; active ingredient 500 g/ha): 30%
CC(C)C(c1cnccc1C(F)(F)F)N(C)C(=O)C(Br)C(C)(C)C (stereo not drawn) [I-196] | – | – | 40% | 70% | 60% | – | – | 50% | – | – | – | – | – | 40% | – | 10% | – | 10% | 60% | 40% | Growth controlling degree (%) Crabgrass ([1]; active ingredient 250 g/ha): 90%; Growth controlling degree (%) Velvetleaf ([2]; active ingredient 250 g/ha): 30%; Growth controlling degree (%) Prickly sida ([6]; active ingredient 250 g/ha): 60%; Growth controlling degree (%) Japanese bulrush ([7]; active ingredient 250 g/ha): 100%; Growth controlling degree (%) Corn ([9]; active ingredient 250 g/ha): 30%; Growth controlling degree (%) Rice ([10]; active ingredient 250 g/ha): 30%; Growth controlling degree (%) Redroot pigweed ([11]; active ingredient 250 g/ha): 60%; Growth controlling degree (%) Green foxtail ([12]; active ingredient 250 g/ha): 95%; Growth controlling degree (%) Japanese ribbon wapato ([13]; active ingredient 250 g/ha): 50%; Growth controlling degree (%) Barnyardgrass ([15]; active ingredient 250 g/ha): 70%; Growth controlling degree (%) wheat ([17]; active ingredient 250 g/ha): 10%; Growth controlling degree (%) Barnyardgrass ([19]; active ingredient 250 g/ha): 98%; Growth controlling degree (%) Soyabean ([20]; active ingredient 250 g/ha): 10%; Growth controlling degree (%) Rice ([22]; active ingredient 250 g/ha): 10%; Growth controlling degree (%) wheat [25]: 40%
CC(C(=O)N(C)C(c1cnccc1C(F)(F)F)C(C)C)c1ccccc1 (stereo not drawn) [I-12] | 100% | 80% | 60% | 60% | 95% | 90% | 100% | 50% | 0% | 10% | 90% | 100% | 70% | 0% | 100% | 10% | 40% | 80% | 50% | 30% | Growth controlling degree (%) Barnyardgrass ([19]; active ingredient 500 g/ha): 100%; Growth controlling degree (%) Soyabean ([20]; active ingredient 1000 g/ha): 20%; Growth controlling degree (%) Tall morningglory [21]: 70%; Growth controlling degree (%) Rice ([22]; active ingredient 500 g/ha): 30%

Source: US20050239656A1, “Pyridine compounds or salts thereof and herbicides containing the same” (priority 2002, published 2005)
